Patent US9850283B2, “Macrocyclic inhibitors of the PD-1/PD-L1 and CD80(B7-1)/PD-L1 protein/protein interactions” (BRISTOL-MYERS SQUIBB COMPANY, priority 2013, dated 2017)
pIC50: −log10 of the molar value. Positions of bridges follow the written chain, without caps; N, C: chain ends. Non-standard residues stand in square brackets, D forms with d. Residues, ends and D or L forms follow the SMILES beside them. Hyp = O=C(O)[C@@H]1C[C@@H](O)CN1; NMeNle = CCCC[C@H](NC)C(=O)O; NMeA = CN[C@@H](C)C(=O)O; Orn = NCCC[C@H](N)C(=O)O; Dab = NCC[C@H](N)C(=O)O; Dap = NC[C@H](N)C(=O)O

What was measured:
Human PD-L1/PD-1 = target: T1, Human PD-L1/PD-1 (Homo sapiens, UniProt Q9NZQ7); experiment: HTRF PD-1-Ig/PD-L1-His binding assay (human PD-L1); settings: cluster symbol; read-out: HTRF IC50 cluster
T1 construct: made in house; host or cells: HEK293T
T1 sequence (Q9NZQ7 with tags, fused parts or gaps): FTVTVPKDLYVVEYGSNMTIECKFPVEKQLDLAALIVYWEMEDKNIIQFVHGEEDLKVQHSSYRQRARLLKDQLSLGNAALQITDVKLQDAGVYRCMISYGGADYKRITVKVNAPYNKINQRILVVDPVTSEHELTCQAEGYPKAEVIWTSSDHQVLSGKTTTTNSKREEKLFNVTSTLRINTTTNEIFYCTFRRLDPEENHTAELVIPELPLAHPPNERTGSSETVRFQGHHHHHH
Summary of the method: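 Ig- and His-fused extracellular PD-1/PD-L1 binding in BSA/Tween-20 dPBS. HTRF with Eu anti-Ig (1 nM final) and APC anti-His (20 nM final).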

[1] = target: T2, LK35.2-hPD-L1 cells / PE-labeled PD-1-Ig (Homo sapiens, UniProt Q9NZQ7); experiment: LK35.2-hPD-L1 cell binding high-content screening assay; type: cell-based; settings: cell binding assay, cell line not given; cluster symbol; read-out: CBA IC50 cluster
T2 construct: expressed in transfected cells; host or cells: LK35.2 mouse B cell line
T2 sequence (Q9NZQ7 19-290): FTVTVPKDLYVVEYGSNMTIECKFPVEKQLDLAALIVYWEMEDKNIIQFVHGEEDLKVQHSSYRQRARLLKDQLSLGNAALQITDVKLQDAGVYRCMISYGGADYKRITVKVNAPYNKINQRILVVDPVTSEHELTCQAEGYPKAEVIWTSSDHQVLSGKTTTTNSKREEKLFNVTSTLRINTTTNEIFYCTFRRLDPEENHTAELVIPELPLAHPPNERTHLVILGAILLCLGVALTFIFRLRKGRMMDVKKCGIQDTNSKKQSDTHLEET
Summary of the method: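 Binding of PE-conjugated human PD-1-Ig (1 nM final) to human PD-L1 stably expressed on a mouse B-cell line (LK35.2) was measured by high-content imaging after washes. Compound and labeled PD-1-Ig were co-incubated 1 h at 37 °C with cells in RPMI/10% FCS.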

| SMILES | pIC50 (Human PD-L1/PD-1) | pIC50 [1] |
| --- | --- | --- |
| CCCC[C@H]1C(=O)N(C)[C@@H](CCCC)C(=O)N[C@@H](CCC(=O)O)C(=O)N[C@H](C(=O)NCC(N)=O)CSCC(=O)N[C@@H](Cc2ccc(O)cc2)C(=O)N(C)[C@@H](C)C(=O)N[C@@H](CC(N)=O)C(=O)N2CCC[C@H]2C(=O)N[C@@H](Cc2c[nH]cn2)C(=O)N[C@@H](CCC(N)=O)C(=O)N2C[C@H](O)C[C@H]2C(=O)N[C@@H](Cc2c[nH]c3ccccc23)C(=O)N[C@@H](CO)C(=O)N[C@@H](Cc2c[nH]c3ccccc23)C(=O)N1C [Example 5126] ({CH2CO}-Y[NMeA]NPHQ[Hyp]WSW[NMeNle][NMeNle]ECG-NH2; thioether N-14) | 8.17 to 9.41 | 7.14 to 8.32 |
| CCCC[C@H]1C(=O)N(C)[C@@H](CCCC)C(=O)N[C@@H](CC(C)C)C(=O)N[C@H](C(=O)NCC(N)=O)CSCC(=O)N[C@@H](Cc2ccc(O)cc2)C(=O)N(C)[C@@H](C)C(=O)N[C@@H](CC(N)=O)C(=O)N2CCC[C@H]2C(=O)NCC(=O)N[C@@H](CCC(N)=O)C(=O)N2C[C@H](O)C[C@H]2C(=O)N[C@@H](Cc2c[nH]c3ccccc23)C(=O)N[C@@H](CO)C(=O)N[C@@H](Cc2c[nH]c3ccccc23)C(=O)N1C [Example 5127] ({CH2CO}-Y[NMeA]NPGQ[Hyp]WSW[NMeNle][NMeNle]LCG-NH2; thioether N-14) | 8.17 to 9.41 | 7.14 to 8.32 |
| CCCC[C@H]1C(=O)N(C)[C@@H](CCCC)C(=O)N[C@@H](CO)C(=O)N[C@H](C(=O)NCC(N)=O)CSCC(=O)N[C@@H](Cc2ccc(O)cc2)C(=O)N(C)[C@@H](C)C(=O)N[C@@H](CC(N)=O)C(=O)N2CCC[C@H]2C(=O)N[C@@H](CO)C(=O)N[C@@H](CCC(N)=O)C(=O)N2C[C@H](O)C[C@H]2C(=O)N[C@@H](Cc2c[nH]c3ccccc23)C(=O)N[C@@H](CO)C(=O)N[C@@H](Cc2c[nH]c3ccccc23)C(=O)N1C [Example 5128] ({CH2CO}-Y[NMeA]NPSQ[Hyp]WSW[NMeNle][NMeNle]SCG-NH2; thioether N-14) | 8.17 to 9.41 | 8.33 to 9.80 |
| CCCC[C@H]1C(=O)N(C)[C@@H](CCCC)C(=O)N[C@@H](CCCNC(=N)N)C(=O)N[C@H](C(=O)NCC(N)=O)CSCC(=O)N[C@@H](Cc2ccc(O)cc2)C(=O)N(C)[C@@H](C)C(=O)N[C@@H](CCN)C(=O)N2CCC[C@H]2C(=O)NCC(=O)N[C@@H](CCC(=O)O)C(=O)N2C[C@H](O)C[C@H]2C(=O)N[C@@H](Cc2c[nH]c3ccccc23)C(=O)N[C@@H](CO)C(=O)N[C@@H](Cc2c[nH]c3ccccc23)C(=O)N1C [Example 5129] ({CH2CO}-Y[NMeA][Dab]PGE[Hyp]WSW[NMeNle][NMeNle]RCG-NH2; thioether N-14) | 8.17 to 9.41 | 7.14 to 8.32 |
| CCCC[C@H]1C(=O)N(C)[C@@H](CCCC)C(=O)N[C@@H](CCCNC(=N)N)C(=O)N[C@H](C(=O)NCC(N)=O)CSCC(=O)N[C@@H](Cc2ccc(O)cc2)C(=O)N(C)[C@@H](C)C(=O)N[C@@H](CCN)C(=O)N2CCC[C@H]2C(=O)N[C@@H](CO)C(=O)N[C@@H](CCC(=O)O)C(=O)N2C[C@H](O)C[C@H]2C(=O)N[C@@H](Cc2c[nH]c3ccccc23)C(=O)N[C@@H](CO)C(=O)N[C@@H](Cc2c[nH]c3ccccc23)C(=O)N1C [Example 5130] ({CH2CO}-Y[NMeA][Dab]PSE[Hyp]WSW[NMeNle][NMeNle]RCG-NH2; thioether N-14) | 7.52 to 8.17 | 8.33 to 9.80 |
| CCCC[C@H]1C(=O)N(C)[C@@H](CCCC)C(=O)N[C@@H](CCCNC(=N)N)C(=O)N[C@H](C(=O)NCC(N)=O)CSCC(=O)N[C@@H](Cc2ccc(O)cc2)C(=O)N(C)[C@@H](C)C(=O)N[C@@H](CCN)C(=O)N2CCC[C@H]2C(=O)N[C@@H](CN)C(=O)N[C@@H](CCC(=O)O)C(=O)N2C[C@H](O)C[C@H]2C(=O)N[C@@H](Cc2c[nH]c3ccccc23)C(=O)N[C@@H](CO)C(=O)N[C@@H](Cc2c[nH]c3ccccc23)C(=O)N1C [Example 5131] ({CH2CO}-Y[NMeA][Dab]P[Dap]E[Hyp]WSW[NMeNle][NMeNle]RCG-NH2; thioether N-14) | 8.17 to 9.41 | 8.33 to 9.80 |
| CCCC[C@H]1C(=O)N(C)[C@@H](CCCC)C(=O)N[C@@H](CCCNC(=N)N)C(=O)N[C@H](C(=O)NCC(N)=O)CSCC(=O)N[C@@H](Cc2ccc(O)cc2)C(=O)N(C)[C@@H](C)C(=O)N[C@@H](CCN)C(=O)N2CCC[C@H]2C(=O)N[C@@H](Cc2c[nH]cn2)C(=O)N[C@@H](CC(=O)O)C(=O)N2C[C@H](O)C[C@H]2C(=O)N[C@@H](Cc2c[nH]c3ccccc23)C(=O)N[C@@H](CO)C(=O)N[C@@H](Cc2c[nH]c3ccccc23)C(=O)N1C [Example 5132] ({CH2CO}-Y[NMeA][Dab]PHD[Hyp]WSW[NMeNle][NMeNle]RCG-NH2; thioether N-14) | 7.52 to 8.17 | 7.14 to 8.32 |
| CCCC[C@H]1C(=O)N(C)[C@@H](CCCC)C(=O)N[C@@H](CC(C)C)C(=O)N[C@H](C(=O)NCC(N)=O)CSCC(=O)N[C@@H](Cc2ccc(O)cc2)C(=O)N(C)[C@@H](C)C(=O)N[C@@H](CCN)C(=O)N2CCC[C@H]2C(=O)N[C@@H](Cc2c[nH]cn2)C(=O)N[C@@H](CCC(=O)O)C(=O)N2C[C@H](O)C[C@H]2C(=O)N[C@@H](Cc2c[nH]c3ccccc23)C(=O)N[C@@H](CO)C(=O)N[C@@H](Cc2c[nH]c3ccccc23)C(=O)N1C [Example 5133] ({CH2CO}-Y[NMeA][Dab]PHE[Hyp]WSW[NMeNle][NMeNle]LCG-NH2; thioether N-14) | 8.17 to 9.41 | 7.14 to 8.32 |
| CCCC[C@H]1C(=O)N(C)[C@@H](CCCC)C(=O)N[C@@H](CCCNC(=N)N)C(=O)N[C@H](C(=O)NCC(N)=O)CSCC(=O)N[C@@H](Cc2ccc(O)cc2)C(=O)N(C)[C@@H](C)C(=O)N[C@@H](CN)C(=O)N2CCC[C@H]2C(=O)N[C@@H](Cc2c[nH]cn2)C(=O)N[C@@H](CC(=O)O)C(=O)N2C[C@H](O)C[C@H]2C(=O)N[C@@H](Cc2c[nH]c3ccccc23)C(=O)N[C@@H](CO)C(=O)N[C@@H](Cc2c[nH]c3ccccc23)C(=O)N1C [Example 5134] ({CH2CO}-Y[NMeA][Dap]PHD[Hyp]WSW[NMeNle][NMeNle]RCG-NH2; thioether N-14) | 8.17 to 9.41 | 7.14 to 8.32 |
| CCCC[C@H]1C(=O)N(C)[C@@H](CCCC)C(=O)N[C@@H](CO)C(=O)N[C@H](C(=O)NCC(N)=O)CSCC(=O)N[C@@H](Cc2ccc(O)cc2)C(=O)N(C)[C@@H](C)C(=O)N[C@@H](CO)C(=O)N2CCC[C@H]2C(=O)N[C@@H](CO)C(=O)N[C@@H](CO)C(=O)N2C[C@H](O)C[C@H]2C(=O)N[C@@H](Cc2c[nH]c3ccccc23)C(=O)N[C@@H](CO)C(=O)N[C@@H](Cc2c[nH]c3ccccc23)C(=O)N1C [Example 5135] ({CH2CO}-Y[NMeA]SPSS[Hyp]WSW[NMeNle][NMeNle]SCG-NH2; thioether N-14) | 7.52 to 8.17 | 7.14 to 8.32 |
| CCCC[C@H]1C(=O)N(C)[C@@H](CCCC)C(=O)N[C@@H](CCC(=O)O)C(=O)N[C@H](C(=O)NCC(N)=O)CSCC(=O)N[C@@H](Cc2ccc(O)cc2)C(=O)N(C)[C@@H](C)C(=O)N[C@@H](CC(=O)O)C(=O)N2CCC[C@H]2C(=O)N[C@@H](Cc2c[nH]cn2)C(=O)N[C@@H](CCCN)C(=O)N2C[C@H](O)C[C@H]2C(=O)N[C@@H](Cc2c[nH]c3ccccc23)C(=O)N[C@@H](CCCCN)C(=O)N[C@@H](Cc2c[nH]c3ccccc23)C(=O)N1C [Example 5137] ({CH2CO}-Y[NMeA]DPH[Orn][Hyp]WKW[NMeNle][NMeNle]ECG-NH2; thioether N-14) | 8.17 to 9.41 | 8.33 to 9.80 |
| CCCC[C@H]1C(=O)N(C)[C@@H](CCCC)C(=O)N[C@@H](CCC(=O)O)C(=O)N[C@H](C(=O)NCC(N)=O)CSCC(=O)N[C@@H](Cc2ccc(O)cc2)C(=O)N(C)[C@@H](C)C(=O)N[C@@H](CCC(=O)O)C(=O)N2CCC[C@H]2C(=O)N[C@@H](Cc2c[nH]cn2)C(=O)N[C@@H](CCCN)C(=O)N2C[C@H](O)C[C@H]2C(=O)N[C@@H](Cc2c[nH]c3ccccc23)C(=O)N[C@@H](CCCCN)C(=O)N[C@@H](Cc2c[nH]c3ccccc23)C(=O)N1C [Example 5138] ({CH2CO}-Y[NMeA]EPH[Orn][Hyp]WKW[NMeNle][NMeNle]ECG-NH2; thioether N-14) | 8.17 to 9.41 | 8.33 to 9.80 |
| CCCC[C@H]1C(=O)N(C)[C@@H](CCCC)C(=O)N[C@@H](CCCCN)C(=O)N[C@H](C(=O)NCC(N)=O)CSCC(=O)N[C@@H](Cc2ccc(O)cc2)C(=O)N(C)[C@@H](C)C(=O)N[C@@H](CC(N)=O)C(=O)N2CCC[C@H]2C(=O)N[C@@H](Cc2c[nH]cn2)C(=O)N[C@@H](CCC(=O)O)C(=O)N2C[C@H](O)C[C@H]2C(=O)N[C@@H](Cc2c[nH]c3ccccc23)C(=O)N[C@@H](CO)C(=O)N[C@@H](Cc2c[nH]c3ccccc23)C(=O)N1C [Example 5139] ({CH2CO}-Y[NMeA]NPHE[Hyp]WSW[NMeNle][NMeNle]KCG-NH2; thioether N-14) | 8.17 to 9.41 | 8.33 to 9.80 |
| CCCC[C@H]1C(=O)N(C)[C@@H](CCCC)C(=O)N[C@@H](CCN)C(=O)N[C@H](C(=O)NCC(N)=O)CSCC(=O)N[C@@H](Cc2ccc(O)cc2)C(=O)N(C)[C@@H](C)C(=O)N[C@@H](CCN)C(=O)N2CCC[C@H]2C(=O)N[C@@H](CN)C(=O)N[C@@H](CC(C)C)C(=O)N2C[C@H](O)C[C@H]2C(=O)N[C@@H](Cc2c[nH]c3ccccc23)C(=O)N[C@@H](CCN)C(=O)N[C@@H](Cc2c[nH]c3ccccc23)C(=O)N1C [Example 5140] ({CH2CO}-Y[NMeA][Dab]P[Dap]L[Hyp]W[Dab]W[NMeNle][NMeNle][Dab]CG-NH2; thioether N-14) | 7.52 to 8.17 | 7.14 to 8.32 |
